{
  "source": "patent US20210403573A1",
  "about": "“METHODS AND PHARMACEUTICAL COMPOSITIONS FOR THE TREATMENT OF FIBROSIS WITH AGENTS CAPABLE OF INHIBITING THE ACTIVATION OF MUCOSAL-ASSOCIATED INVARIANT T (MAIT) CELLS” (INSERM (Institut National de la Santé et de la Recherche …, priority 2017, published 2021)",
  "target": "T1, MR1 (Homo sapiens, UniProt Q95460)",
  "T1 construct": "endogenous in cells; host or cells: human hepatic myofibroblasts (HMF), alone or in co-culture with MAIT cells",
  "T1 sequence (P61769 21-119)": "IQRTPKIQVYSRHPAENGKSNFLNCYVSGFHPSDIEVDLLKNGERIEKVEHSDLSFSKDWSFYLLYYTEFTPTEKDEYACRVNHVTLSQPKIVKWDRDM",
  "T1 sequence (Q95460 23-341)": "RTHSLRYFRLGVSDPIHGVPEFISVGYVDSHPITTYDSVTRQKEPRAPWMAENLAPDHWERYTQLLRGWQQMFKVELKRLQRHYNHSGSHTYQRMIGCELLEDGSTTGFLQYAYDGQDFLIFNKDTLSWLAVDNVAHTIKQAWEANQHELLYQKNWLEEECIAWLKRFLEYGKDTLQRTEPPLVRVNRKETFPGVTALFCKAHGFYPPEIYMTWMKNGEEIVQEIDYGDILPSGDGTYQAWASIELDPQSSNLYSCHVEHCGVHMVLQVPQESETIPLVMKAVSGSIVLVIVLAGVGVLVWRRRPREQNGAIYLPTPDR",
  "assay": "Surface expression of MR1 on hepatic myofibroblasts by flow cytometry",
  "type": "cell-based",
  "conditions": "1 μM, 2 hrs at 37° C., PE-conjugated anti MR1 antibody (26.5)",
  "protocol": "Analysis of Surface Expression of MR1 on Hepatic Myofibroblasts by Flow Cytometry\nHepatic myofibroblast cultures or HMF/MAIT cell co-cultures were exposed to 1 μM Acetyp 6-formylpterin (Ac 6-FP) (Schircks Laboratories, Switzerland) for 2 hrs at 37° C. Cells were then washed, trypsinised, labeled with PE-conjugated anti MR1 antibody (26.5)/isotype control and subjected to flow cytometric analysis.",
  "data": [
    {"substance": "Acetyl-6-formyl-pterin [Acetyl-6-formyl-pterin (6FP)]", "values": [
      {"measurement": "surface expression of MR1 on hepatic myofibroblasts", "value": "enhanced"}
    ]}
  ]
}
